“And” between values parts separate entries of the source, which are not always exact repeats. Equal values may be shown once.
Legend:
Format in all cases: in vivo
[1] = test system: stable flies; experiment: Human forearm test against stable flies, time to first confirmed bite; settings: average of two trials, maximum 8 hours
Procedure: Two insect repellents per day were tested by applying one on each arm of a human subject and inserting the arms into a cage containing 50 stable flies. The exposure period was five minutes at every 30 minute interval until the first time a confirmed bite was […] The stable flies were reared at ambient temperature, relative humidity and photoperiod. Groups of 50 flies were aspirated from the cage and released into 16 oz. cups with screened lids, which were used to release flies into the two test cages. […] Adjacent areas above and below the treated area were protected with elastic bandages held in place with Elastikon® surgical tape.
The application rate was between 0.65 ml and 1 ml/250 cm^2 for all repellents. The actual amount of repellent used was based upon the amount that provides thorough coverage of the 250 cm^2 treatment area. A repellent was applied using either a micropipette or a syringe minus the needle. The repellents were then evenly spread on the treatment area with a gloved finger. Each test subject's forearms were allowed to air dry for approximately 30 minutes prior to the first exposure. The study coordinator or technician assisted the test subjects in inserting their arms into the test cages, taking care not to rub them on the cloth sleeve. Both treated arms were inserted into a cage; there were two subjects (4 arms) per cage. The test subjects exposed their treated forearms to the flies in the test cages for 5 minutes. The subjects then removed their arms from the cages with assistance from the study coordinator or a technician. Exposures of each arm were repeated every 30 minutes until the repellent on that arm was determined to be no longer effective (‘breakdown’) or until 8 hours have elapsed, whichever occurs first.
Breakdown occurs when the first confirmed bite is noted. A confirmed bite occurs when a bite is followed by a second bite in the same exposure period or in the next succeeding exposure period. The second bite becomes the confirming bite and the breakdown time is taken as the time of the first bite. When a confirmed bite occurs, testing is discontinued on that arm. Results in Table 3 below are the average of two trials on two different test subjects. Compounds were diluted in isopropyl alcohol.

[2] = test system: brown marmorated stink bugs (BMSB); experiment: Brown marmorated stink bug repellency, treated vs. untreated filter paper arena
Procedure: The two semi-circle filter papers were aligned together to completely cover the bottom of the test arena. Control arenas were also set up in a similar fashion except both were treated with acetone. Five replicates of 5 BMSB were then introduced into both the treated and control arenas. By releasing them in the center of the arena, the BMSB were presented with a choice of treated vs. untreated substrate (or untreated vs. untreated in the control arenas). The repellency of the BMSB was recorded at 24 hours post-treatment.

[3] = test system: German cockroaches; experiment: German cockroach repellency, choice of food stations in arena; settings: 50% in acetone; at 4 hours
Procedure: The efficacy of compounds of this invention to control or repel German cockroaches was illustrated using the following protocol. One food pellet each was placed on a paper square (station) treated with one of the repellent materials. Materials were diluted to 50% in acetone and a straight acetone station was also used. Both stations were placed on the same side of the arena. Cockroaches were starved for 2 days and then released into the arena. They were given a choice to feed on either food pellet. A control arena with an acetone treated station and an untreated station was also used. The distribution of cockroaches within the arena was recorded at 30 minute intervals over 4 hours. Repellency at 4 hours was calculated by the number of cockroaches on the untreated station vs. the total number of cockroaches on the stations.

[4] = test system: house flies; experiment: House fly repellency on treated filter paper food trays in cages; settings: over 6 hours
Procedure: The bottom of each cage was lined with brown craft paper and divided into 4 equal quadrants. Each quadrant housed a makeshift filter paper food tray. Two of the four filter papers were treated with repellent and two treated with isopropanol. Control cages contained filter papers that were treated with 4 filter papers of isopropanol only. The number of flies resting on filter paper per quadrant was recorded every 30 minutes for a total of 6 hours. Cages were rotated to eliminate positional bias. […] Each of the test samples were diluted in isopropyl alcohol.

[5] = test system: Cockroaches; experiment: Cockroach toxicity by forced exposure on treated filter paper; settings: forced exposure 24 hours
Procedure: Additionally, toxicity was determined by forced exposure testing under the following protocol. Filter paper circles were treated with test compound. Cockroaches were released onto the treated circles and covered with inverted plastic cylinders placed over the paper discs. The cockroaches were left on the substrates for 24 hours and checked for mortality.

[6] = test system: Brown Dog Ticks; experiment: Second repellent assay against Brown Dog Ticks; settings: 15% in isopropyl alcohol
Procedure: Also, a second repellent assay was used to evaluate six test samples against Brown Dog Ticks. Five replicates of five ticks were given the opportunity to quest onto a vertical strip of untreated filter paper and then allowed to move upward toward a second vertical strip of filter paper treated with one of the six candidate repellents or DEET®. In the control situation, the second strip was treated with isopropanol. They were then observed for directional or behavioral changes caused in response to contact with the repellent. Ticks were recorded as either repelled or not repelled. Compounds were diluted in isopropyl alcohol. The percentages of ticks repelled are shown below in Table 6.

[7] = test system: Black Widow spiders; experiment: Black Widow spider choice test in half-treated tube shelters; settings: 5% in isopropanol; location after 24 hours
Procedure: Control against Black Widow spiders was determined using the following protocol. One test container containing two card stock tube shelters, one half treated with a test sample and the other half treated with isopropanol was prepared. A spider was introduced in the center of the tube. The spider was then given a choice to move to one end of the shelters. The following day, its location is recorded and compared to the results from a shelter containing untreated half-shelters.
On the day of the test one of the two shelters was sprayed with the test sample solution using a 2 oz pump spray bottle. Only the surfaces that the spider will most likely contact were treated. Therefore, only the inside of one of the shelter tubes, including the end disc (spiders will not be able to access the outside part of the shelter) were sprayed. The total amount of product was weighed and recorded. The treated surface was allowed to dry for a minimum of ½ hour, or until solvent could not be detected by smell. At this time the shelter tubes were assembled.
Card stock paper tube shelters were constructed from 2 half-letter sized sheets (5½″×8½″) of paper, rolled and taped together to form a short tube. One end of each was covered with a circle of card stock paper, while the other end was later taped to the open end of the other half sheet, forming one long tube. […] The solvent-treated half was labeled with a “C” on the inner and outer walls with a pencil or a pen with solvent resistant ink. Prior to forming the final tube shelter, a semi-circular hole was cut into one of the margins of each sheet such that, once the two tubes are taped together, the holes correspond to the top and at the junction of the tubes for introduction of the spiders.
Twenty-five arenas were prepared in this manner for each test sample. There were five replicates of five spiders. Twenty-five additional control arenas were also prepared. They were prepared the same way, except that areas to be sprayed were sprayed with isopropanol only.
Replicates of five spiders were selected for each test formulation and for the control. The specimens were visually examined for overall physical condition. […] The spiders were transferred directly into the holding vials using flexible forceps or with a little coaxing with an artist brush. Because of their cannibalistic tendencies, each vial contained only one spider. There they were held until the time for testing.
At the test start the spiders were placed directly in the middle, through the opening at the top of the shelter tube, and the opening covered, with only one spider per arena. […] They were left alone for 24 hours, after which time their location within the arena was recorded. Spiders present inside the shelter treated with the test repellent were considered tolerant.

[8] = test system: Brown Dog Ticks, Rhipicephalus sanguineus; experiment: Brown Dog tick repellency on vertical filter paper strips; settings: 7.5% in isopropyl alcohol
Procedure: Control against Brown Dog ticks was determined in the following protocol. Strips of filter paper, 1″ by 3″, were placed on a sheet of aluminum foil treated with 1 ml each of the test samples and allowed to dry. The end of each treated strip was stapled to an untreated filter paper strip of the same dimensions. The stapled strips were suspended in a vertical position above a tray, with the treated half attached to a horizontal glass rod by a metal clip. The untreated half was lowered when the strip is vertically positioned. Brown Dog Ticks, Rhipicephalus sanguineus, mixed sexes, were purchased from a supplier. Five replicates of five ticks for each treatment regimen plus five additional replicates for the control were employed. Ticks shipped to the test site were given at least one day to acclimate to “shipping stress” before they are used for testing. Those tick specimens which appeared sluggish or moribund were not used. Suitable ticks were removed from their containers and allowed to quest on the free end of the test strip. Once present on the strip they were watched as they crawled up the strip until they contacted the treated paper. If the tick, once in contact with the treated zone, either turned around, stopped without proceeding further, or dropped off, the tick is classified as repelled. If it continued to crawl onto the treated strip, even after it stopped briefly, that tick was classified as not repelled. A maximum observation time of 1 minute per replicate was allowed for ticks to respond after reaching the treated area, but during the test, if more time was needed, the maximum observation time may have been adjusted at the discretion of the study coordinator. At the end of the observation time, the number of ticks repelled was recorded. Tick behavior was recorded when applicable, such as whether increased number of affected or repelled ticks occurred in successive replicates over time. After the completion of each treatment parameter, the testing chamber was ventilated for five minutes by turning on the exhaust fan and opening the door leading into the chamber. Ticks were used only once. Average number of ticks displaying each behavior category were calculated and compared to the control replicates.

[9] = 30% in isopropyl alcohol on forearm

Compound | 100% bite protection for [1, 9] [h] | % Repellency at 24 hours ([2]; 2.5% in isopropyl alcohol) [%] | % Repellency 4 hr [3] | Overall % Repellency ([4]; 7.5% in isopropyl alcohol) [%] | other results
CC1CCC(C(C)(C)O)C(O)C1 (stereo not shown) [PMD, p-Menthane-3,8-diol, reference compound] | 6.5 | 80 |  |  | 100% bite protection for ([1]; 15% in isopropyl alcohol on forearm): 4.25 h
CCCCCCCCCCC1CCC(=O)O1 (stereo not shown) [gamma-Tetradecalactone, gamma-tetradecalactone] |  | 82 | 82.4% and 75% | 80 | Mortality @ 24 hours ([5]; neat): 46%; Mean % repelled [6]: 92%; % Repellency at 24 hours ([2]; 5% in isopropyl alcohol): 91%
CCCCCCCCCCCCCC1CCC(=O)O1 (stereo not shown) [gamma-Heptadecalactone] |  |  | 100% | 39 | Mortality @ 24 hours ([5]; neat): 22%
CCCCCCCC1CC(=O)C=C(C)C1 (stereo not shown) [3-Methyl-5-heptyl-2-cyclohexenone, 3-methyl-5-heptyl-2-cyclohexenone] |  |  |  |  | Mortality @ 24 hours ([5]; 2.5% in acetone): 10%
CCCCCCCCCC1(C)CCC(=O)O1 (stereo not shown) [gamma-Methyl tridecalactone, gamma methyl tridecalactone] | 1.75 | 80 |  |  | 
CCCCCC1C(=O)CCC1CC(=O)OCCC (stereo not shown) [Propyl dihydrojasmonate, propyl dihydrojasmonate] | 4 | 80 | 87.5% | 23 | % Repellency [7]: 62.5%; Overall % Repellency ([4]; 5% in isopropyl alcohol): 52%; Mean % repelled [8]: 96%; Mean % repelled [6]: 100%; % Repellency at 24 hours ([2]; 5% in isopropyl alcohol): 100%
CCCCCC1CC(=O)C=C(C)C1 (stereo not shown) [3-Methyl-5-pentyl-2-cyclohexenone, 3-methyl-5-pentyl-2-cyclohexenone] |  |  |  |  | Mortality @ 24 hours ([5]; 2.5% in acetone): 96%
